Key:
Experiment in all cases: relative viability (nuclei count vs DMSO), 5 days (fraction); higher = more cells survive
MLN4924 + Trametinib = compound: NS(=O)(=O)OC[C@@H]1C[C@@H](n2ccc3c(N[C@H]4CCc5ccccc54)ncnc32)C[C@@H]1O [MLN4924] + CC(=O)Nc1cccc(-n2c(=O)n(C3CC3)c(=O)c3c(Nc4ccc(I)cc4F)n(C)c(=O)c(C)c32)c1 [Trametinib] (partner 0.02 µM)
Procedure, shortened: (§1)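 Relative viability was taken as the ratio of nuclei in treated wells to nuclei in vehicle wells. Lung cancer cell lines in 1536-well plates received compounds by pin tool one day after seeding, either one drug alone or a fixed anchor-drug dose plus five library-drug doses (not always all listed) in √10 steps. Nuclei were counted on 4× images after 5 days of treatment, and values are medians of duplicate plates.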

Carboplatin + Olaparib = compound: C1CC(C1)(C(=O)O)C(=O)O.[NH2-].[NH2-].[Pt+2] [Carboplatin] + O=C(c1cc(Cc2n[nH]c(=O)c3ccccc23)ccc1F)N1CCN(C(=O)C2CC2)CC1 [Olaparib] (partner 8 µM)
Procedure, shortened: as §1

GSK126 + Pictilisib = compound: CC[C@H](C)N1C=C(C2=C(C=C(C=C21)C3=CN=C(C=C3)N4CCNCC4)C(=O)NCC5=C(C=C(NC5=O)C)C)C [GSK126] + CS(=O)(=O)N1CCN(Cc2cc3nc(-c4cccc5[nH]ncc45)nc(N4CCOCC4)c3s2)CC1 [Pictilisib] (partner 1 µM)
Procedure, shortened: as §1

GSK126 + Pemetrexed = compound: CC[C@H](C)N1C=C(C2=C(C=C(C=C21)C3=CN=C(C=C3)N4CCNCC4)C(=O)NCC5=C(C=C(NC5=O)C)C)C [GSK126] + Nc1nc2[nH]cc(CCc3ccc(C(=O)N[C@@H](CCC(=O)O)C(=O)O)cc3)c2c(=O)[nH]1 [Pemetrexed] (partner 0.2 µM)
Procedure, shortened: as §1

| Cell Line | relative viability (MLN4924 + Trametinib; first compound 0.04 µM) | relative viability (MLN4924 + Trametinib; first compound 0.1265 µM) | relative viability (MLN4924 + Trametinib; first compound 0.4 µM) | relative viability (MLN4924 + Trametinib; first compound 1.265 µM) | relative viability (MLN4924 + Trametinib; first compound 4 µM) | relative viability (Carboplatin + Olaparib; first compound 0.08 µM) | relative viability (Carboplatin + Olaparib; first compound 0.253 µM) | relative viability (Carboplatin + Olaparib; first compound 0.8 µM) | relative viability (Carboplatin + Olaparib; first compound 2.53 µM) | relative viability (Carboplatin + Olaparib; first compound 8 µM) | relative viability (GSK126 + Pictilisib; first compound 0.08 µM) | relative viability (GSK126 + Pictilisib; first compound 0.253 µM) | relative viability (GSK126 + Pictilisib; first compound 0.8 µM) | relative viability (GSK126 + Pictilisib; first compound 2.53 µM) | relative viability (GSK126 + Pictilisib; first compound 8 µM) | relative viability (GSK126 + Pemetrexed; first compound 0.08 µM) | relative viability (GSK126 + Pemetrexed; first compound 0.253 µM) | relative viability (GSK126 + Pemetrexed; first compound 0.8 µM) | relative viability (GSK126 + Pemetrexed; first compound 2.53 µM) | relative viability (GSK126 + Pemetrexed; first compound 8 µM) |
| --- | --- | --- | --- | --- | --- | --- | --- | --- | --- | --- | --- | --- | --- | --- | --- | --- | --- | --- | --- | --- |
| COR-L 105 | 0.433 | 0.417 | 0.422 | 0.3 | 0.339 | 0.766 | 0.756 | 0.518 | 0.544 | 0.456 | 0.435 | 0.406 | 0.347 | 0.389 | 0.459 | 1.08 | 0.987 | 0.887 | 1.11 | 1.12 |
| PC-3 [JPC-3] | 0.625 | 0.727 | 0.495 | 0.538 | 0.374 | 1.23 | 1.14 | 1.12 | 1.04 | 0.835 | 0.808 | 0.795 | 0.814 | 0.781 | 0.762 | 1.15 | 1.04 | 1.08 | 1.22 | 1.08 |
| NCI-H2347 | 0.312 | 0.32 | 0.284 | 0.265 | 0.293 | 0.55 | 0.568 | 0.57 | 0.546 | 0.498 | 0.602 | 0.661 | 0.567 | 0.511 | 0.616 | 0.422 | 0.396 | 0.448 | 0.441 | 0.461 |
| SW 1573 | 0.586 | 0.441 | 0.14 | 0.0868 | 0.0758 | 0.579 | 0.552 | 0.477 | 0.493 | 0.234 | 0.568 | 0.485 | 0.528 | 0.486 | 0.559 | 0.945 | 0.981 | 0.934 | 1.08 | 0.877 |
| NCI-H838 | 0.438 | 0.331 | 0.172 | 0.0938 | 0.126 | 0.773 | 0.746 | 0.757 | 0.683 | 0.575 | 0.507 | 0.35 | 0.403 | 0.426 | 0.369 | 0.245 | 0.231 | 0.229 | 0.239 | 0.24 |
| HCC-44 | 0.962 | 0.844 | 0.814 | 0.447 | 0.368 | 1.02 | 0.93 | 0.972 | 0.944 | 0.952 | 0.643 | 0.534 | 0.894 | 0.61 | 0.591 | 0.65 | 0.712 | 0.581 | 0.602 | 0.551 |
| HCC-78 | 0.798 | 0.509 | 1.13 | 0.268 | 0.243 | 0.888 | 0.851 | 0.574 | 0.684 | 0.726 | 0.25 | 0.201 | 0.178 | 0.217 | 0.237 | 0.889 | 0.866 | 0.888 | 0.891 | 0.871 |
| A-427 | 0.612 | 0.477 | 0.334 | 0.271 | 0.263 | 0.733 | 0.695 | 0.88 | 0.648 | 0.712 | 0.855 | 0.786 | 0.701 | 0.799 | 0.641 | 1.03 | 0.937 | 1.03 | 1.08 | 0.991 |

From the supplement of paper PMC10307832
